Experimental data taken from patent US4562202A, “N-Acyl hexahydroindole-2-carboxylic acids and anti-hypertensive use thereof” (Hoechst Aktiengesellschaft, priority 1982, dated 1985).

Test system: pressor reaction induced by angiotensin I
Assay: Inhibition of the pressor reaction induced by 310 ng of angiotensin I, intraduodenal administration to the anaesthetized rat
Format: in vivo
Settings: 0.5 h, 310 ng angiotensin I, 30 min. after administration, read-out: ED50 (50% inhibition of the pressor reaction induced by 310 ng of angiotensin I 30 min. after administration)
Protocol: intraduodenal administration to the anaesthetized rat, 50% inhibition of the pressor reaction induced by 310 ng of angiotensin I 30 min. after administration in the dose . . . =ED50 : […]

Row | SMILES | ED50 [mg/kg]
1 | CCOC(=O)[C@H](CCc1ccccc1)N[C@@H](C)C(=O)N1C(C(=O)O)CC2CCC=CC21 (stereo partly drawn) [N-(1S-carboethoxy-3-phenylpropyl)-S-alanyl-cis-2,3,3a,4,5,7a-hexahydro[1H]indole-2R,S-endo-carboxylic acid] | 0.08
2 | CCOC(=O)[C@H](CC(=O)c1ccccc1)N[C@@H](C)C(=O)N1[C@@H]2C=CCC[C@@H]2C[C@H]1C(=O)O [N-(1S-carboethoxy-3-oxophenylpropyl)-S-alanyl-cis-2,3,3a,4,5,7a-hexahydro[1H]indole-2S-exocarboxylic acid] | 0.5
3 | CCOC(=O)[C@H](CC(=O)c1ccccc1)N[C@@H](C)C(=O)N1[C@H](C(=O)O)C[C@@H]2CCC=C[C@@H]21 [N-(1S-carboethoxy-3-oxo-3-phenylpropyl)-S-alanyl-cis-2,3,3a,4,5,7a-hexahydro[1H]indole-2S-endocarboxylic acid] | 0.39
4 | C[C@H](N[C@@H](CCc1ccccc1)C(=O)O)C(=O)N1[C@@H]2C=CCC[C@@H]2C[C@H]1C(=O)O [N-(1S-carboxy-3-phenylpropyl)-S-alanyl-cis-2,3,3a,4,5,7a-hexahydro[1H]indole-2S-exo-carboxylic acid] | 0.7
5 | CCOC(=O)[C@H](CCc1ccccc1)N[C@@H](C)C(=O)N1[C@H](C(=O)O)C[C@@H]2CCC=C[C@@H]21 [N-(1S-carboethoxy-3-phenylpropyl)-S-alanyl-cis-2,3,3a,4,5,7a-hexahydro [1H]indole-2S-endo-carboxylic acid] | 0.04
6 | CCOC(=O)[C@H](CCc1ccccc1)N[C@@H](C)C(=O)N1[C@@H]2C=CCC[C@@H]2C[C@H]1C(=O)O [N-(1S-carboethoxy-3-phenylpropyl)-S-alanyl-cis-2,3,3a,4,5,7a-hexahydro[1H]indole-2S-exo-carboxylic acid] | 0.07
7 | C[C@H](N[C@@H](CCc1ccccc1)C(=O)O)C(=O)N1[C@H](C(=O)O)C[C@@H]2CCC=C[C@@H]21 [N-(1S-carboxy-3-phenylpropyl)-S-alanyl-cis-2,3,3a,4,5,7a-hexahydro[1H]indole-2S-endo-carboxylic acid] | 0.6
